Data as given in patent US11208400B2, “Substituted 6-(1H-pyrazol-1-yl)pyrimidin-4-amine derivatives and uses thereof” (Bayer Aktiengesellschaft, priority 2016, dated 2021).

Target: T1, human Npt2a (Homo sapiens, UniProt Q06495)
T1 construct: expressed in transfected cells
T1 sequence (Q06495 1-639): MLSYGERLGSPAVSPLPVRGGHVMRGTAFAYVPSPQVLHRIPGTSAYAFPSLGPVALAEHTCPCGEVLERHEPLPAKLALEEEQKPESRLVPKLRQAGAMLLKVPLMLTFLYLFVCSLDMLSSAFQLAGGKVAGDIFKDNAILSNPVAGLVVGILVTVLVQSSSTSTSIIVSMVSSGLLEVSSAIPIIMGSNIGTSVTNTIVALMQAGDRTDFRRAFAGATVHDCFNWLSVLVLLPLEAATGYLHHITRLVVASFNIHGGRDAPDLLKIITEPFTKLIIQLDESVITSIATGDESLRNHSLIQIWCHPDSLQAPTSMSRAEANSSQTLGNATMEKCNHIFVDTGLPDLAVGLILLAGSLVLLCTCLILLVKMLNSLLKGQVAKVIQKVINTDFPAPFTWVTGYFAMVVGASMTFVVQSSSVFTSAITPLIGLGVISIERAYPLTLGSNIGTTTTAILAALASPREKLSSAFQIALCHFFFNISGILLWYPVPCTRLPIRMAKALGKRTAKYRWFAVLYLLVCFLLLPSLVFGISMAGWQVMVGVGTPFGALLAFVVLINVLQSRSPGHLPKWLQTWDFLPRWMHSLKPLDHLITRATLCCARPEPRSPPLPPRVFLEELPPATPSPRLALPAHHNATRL
Assay: Npt2a activity cell based assay, membrane potential dye, CHO T-REx hNpt2a cells
Settings: doxycycline-induced, depolarization by sodium phosphate influx, average or median values if tested more than once
Summary of the method: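 Cells were doxycycline-induced CHO T-REx hNpt2a, dye-loaded and pretreated 5 min at RT with 1 nM–50 μM compound in Na-free pH 7.4 buffer. IC50 was fit to the post/pre-trigger fluorescence ratio.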

Going from `Cc1cc(C(F)F)n(-c2cc(Nc3nn(C)c(-c4ccc(F)cc4)c3Cl)ncn2)n1` [Example 346, N-[4-chloro-5-(4-fluorophenyl)-1-methyl-1H-pyrazol-3-yl]-6-[5-(difluoromethyl)-3-methyl-1H-pyrazol-1-yl]pyrimidin-4-amine] to `CCc1c(Nc2cc(-n3nc4ncccc4c3C)ncn2)nn(C)c1-c1ccc(F)cc1` [Example 167, N-[4-ethyl-5-(4-fluorophenyl)-1-methyl-1H-pyrazol-3-yl]-6-(3-methyl-2H-pyrazolo[3,4-b]pyridin-2-yl)pyrimidin-4-amine], the IC50 rises from 4 nM to 550 nM (140-fold). The first is the more potent here.

Compared with `Cc1nn(-c2cc(Nc3nn(CCC4CC4)c(-c4ccc(C#N)cc4)c3C)ncn2)c(C(F)F)c1Cl` [Example 239, 4-[3-({6-[4-chloro-5-(difluoromethyl)-3-methyl-1H-pyrazol-1-yl]pyrimidin-4-yl}amino)-1-(2-cyclopropylethyl)-4-methyl-1H-pyrazol-5-yl]benzonitrile], `Cc1c(-c2ccc(C#N)cc2)nn(CC2CC2)c1Nc1cc(-n2nc(C)c3cnccc32)ncn1` [Example 233, 4-[1-(cyclopropylmethyl)-4-methyl-5-{[6-(3-methyl-1H-pyrazolo[4,3-c]pyridin-1-yl)pyrimidin-4-yl]amino}-1H-pyrazol-3-yl]benzonitrile] is 10-fold lower in IC50: 290 nM for the first, 29 nM for the second. The second is the more potent here.

First: COc1c(-c2ccc(F)cc2)nn(CC2CC2)c1Nc1cc(-n2nc(C)c(-c3nnc(C)o3)c2C)ncn1 [Example 450, N-[1-(cyclopropylmethyl)-3-(4-fluorophenyl)-4-methoxy-1H-pyrazol-5-yl]-6-[3,5-dimethyl-4-(5-methyl-1,3,4-oxadiazol-2-yl)-1H-pyrazol-1-yl]pyrimidin-4-amine]
Second: Cc1nn(-c2cc(Nc3c(C)c(-c4ccc(F)cc4)nn3CC3CC3)ncn2)c(C)c1Cl [Example 175, 6-(4-chloro-3,5-dimethyl-1H-pyrazol-1-yl)-N-[1-(cyclopropylmethyl)-3-(4-fluorophenyl)-4-methyl-1H-pyrazol-5-yl]pyrimidin-4-amine]
The IC50 of the first is 47-fold higher: 660 nM for the first, 14 nM for the second.

Compared with `COCCn1nc(-c2ccc(F)cc2)c(C)c1Nc1cc(-n2nc(C)c(OC)c2C)ncn1` [Example 526, N-[3-(4-fluorophenyl)-1-(2-methoxyethyl)-4-methyl-1H-pyrazol-5-yl]-6-(4-methoxy-3,5-dimethyl-1H-pyrazol-1-yl)pyrimidin-4-amine], `Cc1nn(-c2cc(Nc3c(C)c(-c4ccc(F)cc4)nn3CC3CC3)ncn2)c(C)c1CC(C)(C)O` [Example 302, 1-[1-(6-{[1-(cyclopropylmethyl)-3-(4-fluorophenyl)-4-methyl-1H-pyrazol-5-yl]amino}pyrimidin-4-yl)-3,5-dimethyl-1H-pyrazol-4-yl]-2-methylpropan-2-ol] is 1.9-fold lower in IC50: 17 nM for the first, 9 nM for the second. The second is the more potent here.

Compared with `Cc1nn(-c2cc(Nc3c(C)nn(-c4ccc(F)cc4)c3C)ncn2)c(C)c1Cl` [Example 63, 6-(4-chloro-3,5-dimethyl-1H-pyrazol-1-yl)-N-[1-(4-fluorophenyl)-3,5-dimethyl-1H-pyrazol-4-yl]pyrimidin-4-amine], `CCOC(=O)c1c(Cl)c(C)nn1-c1cc(Nc2c(Cl)c(-c3ccc(F)cc3)nn2C)ncn1` [Example 448, ethyl 4-chloro-1-(6-{[4-chloro-3-(4-fluorophenyl)-1-methyl-1H-pyrazol-5-yl]amino}pyrimidin-4-yl)-3-methyl-1H-pyrazole-5-carboxylate] is 58-fold higher in IC50: 7.65 nM for the first, 440 nM for the second.

Compared with `COc1c(Nc2cc(-n3nc(C)c(CC(C)(C)O)c3C)ncn2)nn(C)c1-c1ccc(C#N)cc1` [Example 531, 4-[3-({6-[4-(2-hydroxy-2-methylpropyl)-3,5-dimethyl-1H-pyrazol-1-yl]pyrimidin-4-yl}amino)-4-methoxy-1-methyl-1H-pyrazol-5-yl]benzonitrile], `Cc1nn(-c2cc(Nc3c(C)c(-c4ccc(C#N)cc4)nn3C)ncn2)c2c1C(=O)CC2` [Example 211, 4-(1,4-dimethyl-5-{[6-(3-methyl-4-oxo-5,6-dihydrocyclopenta[c]pyrazol-1(4H)-yl)pyrimidin-4-yl]amino}-1H-pyrazol-3-yl)benzonitrile] is 7.5-fold lower in IC50: 1500 nM for the first, 200 nM for the second. The second is the more potent here.

Going from `Cc1nn(-c2cc(Nc3c(C)c(-c4ccc(OC(F)(F)F)cc4)nn3C)ncn2)c(C)c1C(C)(C)O` [Example 377, 2-{1-[6-({1,4-dimethyl-3-[4-(trifluoromethoxy)phenyl]-1H-pyrazol-5-yl}amino)pyrimidin-4-yl]-3,5-dimethyl-1H-pyrazol-4-yl}propan-2-ol] to `Cc1nn(-c2cc(Nc3c(C)c(-c4ccc(OC(F)F)cc4)nn3CC3CC3)ncn2)c(C)c1C(F)(F)F` [Example 478, N-{1-(cyclopropylmethyl)-3-[4-(difluoromethoxy)phenyl]-4-methyl-1H-pyrazol-5-yl}-6-[3,5-dimethyl-4-(trifluoromethyl)-1H-pyrazol-1-yl]pyrimidin-4-amine], the IC50 falls from 205 nM to 45 nM (4.6-fold).

`Cc1nn(-c2cc(Nc3c(C)c(-c4ccc(F)cc4)nn3CC3CC3)ncn2)c2c1C(O)(C(F)(F)F)CC2` (racemic) [Example 386, (±)-1-(6-{[1-(cyclopropylmethyl)-3-(4-fluorophenyl)-4-methyl-1H-pyrazol-5-yl]amino}pyrimidin-4-yl)-3-methyl-4-(trifluoromethyl)-1,4,5,6-tetrahydrocyclopenta[c]pyrazol-4-ol] and `Cc1nn(-c2cc(Nc3c(C)c(-c4ccc(F)cc4)nn3CC3CC3)ncn2)c(C)c1C(O)(C(F)(F)F)C(F)(F)F` [Example 295, 2-[1-(6-{[1-(cyclopropylmethyl)-3-(4-fluorophenyl)-4-methyl-1H-pyrazol-5-yl]amino}pyrimidin-4-yl)-3,5-dimethyl-1H-pyrazol-4-yl]-1,1,1,3,3,3-hexafluoropropan-2-ol] are within 1.5-fold of each other in IC50: 12 nM for the first, 13 nM for the second.

Compared with `CCc1c(Nc2cc(-n3nc(C)cc3C)ncn2)n[nH]c1C1CCCCC1` [Example 28, N-(5-cyclohexyl-4-ethyl-1H-pyrazol-3-yl)-6-(3,5-dimethyl-1H-pyrazol-1-yl)pyrimidin-4-amine], `CCc1c(Nc2cc(-n3nc(C)c4c3CCC4=O)ncn2)nn(C)c1-c1ccc(F)cc1` [Example 273, 1-(6-{[4-ethyl-5-(4-fluorophenyl)-1-methyl-1H-pyrazol-3-yl]amino}pyrimidin-4-yl)-3-methyl-5,6-dihydrocyclopenta[c]pyrazol-4(1H)-one] is 4.1-fold lower in IC50: 490 nM for the first, 120 nM for the second.

First: Cc1nn(-c2cc(Nc3c(C)c(-c4ccc(F)cc4)nn3CC3CC3)ncn2)c(C)c1C(=O)N(C)C [Example 402, 1-(6-{[1-(cyclopropylmethyl)-3-(4-fluorophenyl)-4-methyl-1H-pyrazol-5-yl]amino}pyrimidin-4-yl)-N,N,3,5-tetramethyl-1H-pyrazole-4-carboxamide]
Second: Cc1nn(-c2cc(Nc3c(C)c(-c4ccc(F)cc4)nn3CC3CC3)ncn2)c(C)c1C#N [Example 288, 1-(6-{[1-(cyclopropylmethyl)-3-(4-fluorophenyl)-4-methyl-1H-pyrazol-5-yl]amino}pyrimidin-4-yl)-3,5-dimethyl-1H-pyrazole-4-carbonitrile]
The IC50 of the first is 3.4-fold higher: 55 nM for the first, 16 nM for the second.

`CCc1c(-c2ccc(F)cc2)nn(CC2CC2)c1Nc1cc(-n2nc(C)c3ccncc32)ncn1` [Example 205, N-[1-(cyclopropylmethyl)-4-ethyl-3-(4-fluorophenyl)-1H-pyrazol-5-yl]-6-(3-methyl-1H-pyrazolo[3,4-c]pyridin-1-yl)pyrimidin-4-amine] was tested, and the IC50 was 20 nM.
